Experimental findings from US9180116B2, “Difluorolactam compounds as EP4 receptor-selective agonists for use in the treatment of EP4-mediated diseases and conditions” (Cayman Chemical Company, Inc., priority 2012, dated 2015) are described below.

The target in assay [1] is T1, rat EP4 receptor (Rattus norvegicus (Rat), UniProt P43114). The assay can be described thus: SEAP activity assay for EP4 agonist (STEP plate format). The assay is classed as cell-based. The text has this:
(§1) Functional Cellular Assays (STEP Plate Format)
(§2) Procedure of SEAP Activity Assay for EP2/EP4 Agonist
(§3) 3. […] In addition each concentration had triplicates.
(§4) 4. […] Cover the plate with the lid.

For assay [2], the target named is T1, rat EP4 receptor. The assay can be described thus: cAMP level assay for EP4 agonist (STEP plate format). The assay is classed as cell-based. As to conditions: read-out: STEP cell functional assay EC50 cAMP/EP4.
From the text: as §1
Procedure of cAMP Assay for EP2/EP4 Agonist
as §3
6. Aspirate the supernatant.
(In general: Cyclic AMP is a second messenger, typically raised through Gs and lowered through Gi signalling.)

The target in the next assay is rat EP2 receptor (Rattus norvegicus (Rat), UniProt Q62928). The experiment in a line: SEAP activity assay for EP2 agonist (STEP plate format). As to conditions: read-out: STEP cell functional assay EC50 SEAP/EP2. The assay is classed as cell-based.
From the text: as §1, §2, §3, §4

In assay [3] the target is Human Prostanoid EP4 Receptor (Homo sapiens (Human), UniProt P35408). The experiment in a line: Radioligand binding assay, agonist site of human prostanoid EP4 receptor in transfected HEK-293 cells. As to conditions: for IC50: read-out: hEP4 receptor binding IC50; for Ki: read-out: hEP4 receptor binding Ki. How it is done: Radioligand Binding Assay for the Evaluation of the Affinity of Compounds for the Agonist Site of the Human Prostanoid EP4 Receptor in Transfected HEK-293 Cells
Following incubation, the samples are filtered rapidly under vacuum through glass fiber filters (GF/B, Packard) presoaked with 0.3% PEI and rinsed several times with ice-cold 50 mM Tris-HCl using a 96-sample cell harvester (Unifilter, Packard). The filters are dried then counted for radioactivity in a scintillation counter (Topcount, Packard) using a scintillation cocktail (Microscint 0, Packard).

The mark [4] stands for this setting: SEAP luminescence, 6-8 hours of stimulation.
Setting [5] is: SEAP luminescence, 6-8 hours of stimulation, read-out: STEP cell functional assay EC50 SEAP/EP4.
Where [6] appears, read: cAMP by ELISA, 30 minutes, 500 μM IBMX.
The mark [7] stands for this setting: [3H]PGE2 0.5 nM, HEK-293 cell membrane homogenates.

Read-outs that look alike come from different tables or passages of the source.

Consider `CCCCC[C@H](O)/C=C/[C@H]1[C@H](O)CC(=O)[C@@H]1C/C=C\CCCC(=O)O` [PGE2, prostaglandin E2, reference compound], for which the EC50 at rat EP4 receptor [1] was […].

Sequence of Human Prostanoid EP4 Receptor (P35408 whole entry): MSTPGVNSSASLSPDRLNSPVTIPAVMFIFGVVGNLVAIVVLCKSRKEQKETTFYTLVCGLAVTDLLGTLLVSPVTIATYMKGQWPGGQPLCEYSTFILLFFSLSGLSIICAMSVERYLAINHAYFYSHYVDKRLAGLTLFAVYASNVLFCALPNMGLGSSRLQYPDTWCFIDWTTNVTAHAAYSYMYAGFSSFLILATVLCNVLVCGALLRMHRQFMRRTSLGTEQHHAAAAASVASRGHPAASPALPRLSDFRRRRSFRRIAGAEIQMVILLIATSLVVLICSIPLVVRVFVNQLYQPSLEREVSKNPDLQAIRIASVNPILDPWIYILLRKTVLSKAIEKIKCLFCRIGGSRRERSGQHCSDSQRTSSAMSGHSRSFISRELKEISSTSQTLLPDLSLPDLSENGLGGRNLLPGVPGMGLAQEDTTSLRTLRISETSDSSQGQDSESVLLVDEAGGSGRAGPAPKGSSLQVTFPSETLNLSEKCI
Sequence of rat EP2 receptor (Q62928 whole entry): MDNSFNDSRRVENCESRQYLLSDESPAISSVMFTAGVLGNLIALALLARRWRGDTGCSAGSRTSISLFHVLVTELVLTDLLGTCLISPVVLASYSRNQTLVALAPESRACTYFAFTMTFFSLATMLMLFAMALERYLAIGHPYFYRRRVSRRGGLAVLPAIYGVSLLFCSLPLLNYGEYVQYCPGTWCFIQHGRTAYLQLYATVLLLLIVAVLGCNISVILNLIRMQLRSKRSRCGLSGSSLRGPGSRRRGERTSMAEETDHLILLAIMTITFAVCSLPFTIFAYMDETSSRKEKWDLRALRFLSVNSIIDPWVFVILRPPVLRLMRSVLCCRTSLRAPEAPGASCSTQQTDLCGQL
T1 sequence (P43114 whole entry): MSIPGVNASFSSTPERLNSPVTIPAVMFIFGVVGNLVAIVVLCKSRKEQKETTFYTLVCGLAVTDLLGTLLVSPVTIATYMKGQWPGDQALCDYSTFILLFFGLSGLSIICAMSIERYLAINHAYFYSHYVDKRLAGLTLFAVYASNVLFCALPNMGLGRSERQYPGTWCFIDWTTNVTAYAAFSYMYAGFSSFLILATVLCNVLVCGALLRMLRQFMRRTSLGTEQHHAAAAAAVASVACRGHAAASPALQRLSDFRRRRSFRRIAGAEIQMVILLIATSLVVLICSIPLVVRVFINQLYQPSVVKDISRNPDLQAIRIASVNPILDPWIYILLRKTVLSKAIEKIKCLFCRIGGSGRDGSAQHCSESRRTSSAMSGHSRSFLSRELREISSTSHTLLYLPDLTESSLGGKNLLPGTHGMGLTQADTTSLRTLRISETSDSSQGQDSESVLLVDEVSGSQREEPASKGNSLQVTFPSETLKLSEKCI

Consider `COC(=O)c1ccc(CCCN2C(=O)C(F)(F)C[C@@H]2/C=C/[C@@H](O)[C@@H](C)CCCCCc2ccccc2)s1` [Example 39A, methyl 5-(3-((R)-3,3-difluoro-5-((3S,4S,E)-3-hydroxy-4-methyl-9-phenylnon-1-en-1-yl)-2-oxopyrrolidin-1-yl)propyl)thiophene-2-carboxylate], for which the EC50 on rat EP4 receptor [2] (cAMP readout, EP4) was greater than 1000 nM.

With `C[C@@H](CCCc1ccccc1)[C@@H](O)/C=C/[C@H]1CC(F)(F)C(=O)N1CCCc1ccc(C(=O)O)s1` [Example 28D, 5-(3-((R)-3,3-difluoro-5-((3R,4S,E)-3-hydroxy-4-methyl-7-phenylhept-1-en-1-yl)-2-oxopyrrolidin-1-yl)propyl)thiophene-2-carboxylic acid], the EC50 at rat EP4 receptor [2] (cAMP readout, EP4) was 5.68 nM.

Consider `CCCCC[C@H](O)/C=C/[C@H]1[C@H](O)CC(=O)[C@@H]1CCCCCCC(=O)O` [PGE1, reference compound], for which the EC50 on rat EP2 receptor (setting [4]) was found to be 16.5 nM.

As to `O=C(O)CCCCCCN1C(=O)C(F)(F)C[C@@H]1/C=C/[C@@H](O)CCCCc1ccccc1` [Example 10C, 7-((R)-3,3-difluoro-5-((S,E)-3-hydroxy-7-phenylhept-1-en-1-yl)-2-oxopyrrolidin-1-yl)heptanoic acid], the EC50 on rat EP4 receptor [1] (setting [5]) was determined as 0.01 nM; on rat EP4 receptor [2] (setting [6]) it was 1.1 nM. Moreover, the IC50 in assay [3] (setting [7]) was 4.9 nM. The Ki in assay [3] (setting [7]) amounted to 1.8 nM.

Consider `CCCCC[C@H](O)/C=C/[C@H]1CC(F)(F)C(=O)N1CCCCCCC(=O)O` [Example 9C, 7-((R)-3,3-difluoro-5-((S,E)-3-hydroxyoct-1-en-1-yl)-2-oxopyrrolidin-1-yl)heptanoic acid], for which the EC50 at rat EP4 receptor [1] (setting [5]) was found to be 0.059 nM; on rat EP4 receptor [2] (setting [6]), 0.37 nM; at rat EP2 receptor (setting [4]), 205 ± 124 nM. Moreover, in assay [3] (setting [7]), the IC50 worked out at 0.57 nM. For the same compound, the Ki in assay [3] (setting [7]) stood at 0.21 nM.

`C[C@H](CCCc1ccccc1)[C@H](O)/C=C/[C@H]1CC(F)(F)C(=O)N1CCCc1ccc(C(=O)O)s1` [Example 28G, 5-(3-((R)-3,3-difluoro-5-((3S,4R,E)-3-hydroxy-4-methyl-7-phenylhept-1-en-1-yl)-2-oxopyrrolidin-1-yl)propyl)thiphene-2-carboxylic acid]: the EC50 worked out at 0.0162 nM on rat EP4 receptor [2] (cAMP readout, EP4) and 65 nM at rat EP2 receptor (SEAP readout, EP2).

On to `C[C@@H](CCCCc1ccccc1)[C@@H](O)/C=C/[C@H]1CC(F)(F)C(=O)N1CCCc1ccc(C(=O)O)s1` [Example 38D, 5-(3-((R)-3,3-difluoro-5-((3R,4S,E)-3-hydroxy-4-methyl-8-phenyloct-1-en-1-yl)-2-oxopyrrolidin-1-yl)propyl)thiophene-2-carboxylic acid], for which the EC50 on rat EP4 receptor [2] (cAMP readout, EP4) is 0.37 nM; at rat EP2 receptor (SEAP readout, EP2), greater than 10000 nM.

As for `COC(=O)c1ccc(CCCN2C(=O)C(F)(F)C[C@@H]2/C=C/[C@@H](O)[C@@H](C)CCCCc2ccccc2)s1` [Example 38A, methyl 5-(3-((R)-3,3-difluoro-5-((3S,4S,E)-3-hydroxy-4-methyl-8-phenyloct-1-en-1-yl)-2-oxopyrrolidin-1-yl)propyl)thiophene-2-carboxylate], the EC50 at rat EP4 receptor [2] (cAMP readout, EP4) is greater than 1000 nM.

Consider `C[C@@H](Cc1ccccc1)[C@H](O)/C=C/[C@H]1CC(F)(F)C(=O)N1CCCc1ccc(C(=O)O)s1` [Example 36C, 5-(3-((R)-3,3-difluoro-5-((3S,4S,E)-3-hydroxy-4-methyl-5-phenylpent-1-en-1-yl)-2-oxopyrrolidin-1-yl)propyl)thiophene-2-carboxylic acid], for which the EC50 at rat EP4 receptor [2] (cAMP readout, EP4) stood at 0.038 nM; at rat EP2 receptor (SEAP readout, EP2), 1000 nM.

Turning to `COC(=O)c1ccc(CCCN2C(=O)C(F)(F)C[C@@H]2/C=C/[C@H](O)[C@@H](C)Cc2ccccc2)s1` [Example 36B, methyl 5-(3-((R)-3,3-difluoro-5-((3R,4S,E)-3-hydroxy-4-methyl-5-phenylpent-1-en-1-yl)-2-oxopyrrolidin-1-yl)propyl)thiophene-2-carboxylate], the EC50 on rat EP4 receptor [2] (cAMP readout, EP4) is greater than 1000 nM.

In the case of `COC(=O)c1ccc(CCCN2C(=O)C(F)(F)C[C@@H]2/C=C/[C@@H](O)[C@@H](C)Cc2ccccc2)s1` [Example 36A, methyl 5-(3-((R)-3,3-difluoro-5-((3S,4S,E)-3-hydroxy-4-methyl-5-phenylpent-1-en-1-yl)-2-oxopyrrolidin-1-yl)propyl)thiophene-2-carboxylate], the EC50 at rat EP4 receptor [2] (cAMP readout, EP4) is 5.02 nM.

As to `COC(=O)c1ccc(CCCN2C(=O)C(F)(F)C[C@@H]2/C=C/[C@@H](O)[C@@H](C)CCc2ccccc2)s1` [Example 37A, methyl 5-(3-((R)-3,3-difluoro-5-((3S,4S,E)-3-hydroxy-4-methyl-6-phenylhex-1-en-1-yl)-2-oxopyrrolidin-1-yl)propyl)thiophene-2-carboxylate], on rat EP4 receptor [2] (cAMP readout, EP4), the EC50 was determined as 8.09 nM.

As for `C[C@H](CCCc1ccccc1)[C@@H](O)/C=C/[C@H]1CC(F)(F)C(=O)N1CCCc1ccc(C(=O)O)s1` [Example 28H, 5-(3-((R)-3,3-difluoro-5-((3R,4R,E)-3-hydroxy-4-methyl-7-phenylhept-1-en-1-yl)-2-oxopyrrolidin-1-yl)propyl)thiphene-2-carboxylic acid], the EC50 at rat EP4 receptor [2] (cAMP readout, EP4) was 3.15 nM.

On to `C[C@@H](CCCCc1ccccc1)[C@H](O)/C=C/[C@H]1CC(F)(F)C(=O)N1CCCc1ccc(C(=O)O)s1` [Example 38C, 5-(3-((R)-3,3-difluoro-5-((3S,4S,E)-3-hydroxy-4-methyl-8-phenyloct-1-en-1-yl)-2-oxopyrrolidin-1-yl)propyl)thiophene-2-carboxylic acid], for which the EC50 at rat EP2 receptor (SEAP readout, EP2) is 157 nM.

`C[C@@H](c1ccccc1)[C@H](O)/C=C/[C@H]1CC(F)(F)C(=O)N1CCCc1ccc(C(=O)O)s1` [Example 35C, 5-(3-((R)-3,3-difluoro-5-((3R,4S,E)-3-hydroxy-4-phenylpent-1-en-1-yl)-2-oxopyrrolidin-1-yl)propyl)thiophene-2-carboxylic acid]: the EC50 at rat EP4 receptor [2] (cAMP readout, EP4) amounted to 62 nM.

`C[C@@H](CCCc1ccccc1)[C@H](O)/C=C/[C@H]1CC(F)(F)C(=O)N1CCCc1ccc(C(=O)O)s1` [Example 28C, 5-(3-((R)-3,3-difluoro-5-((3S,4S,E)-3-hydroxy-4-methyl-7-phenylhept-1-en-1-yl)-2-oxopyrrolidin-1-yl)propyl)thiophene-2-carboxylic acid]: the EC50 at rat EP4 receptor [2] (cAMP readout, EP4) worked out at 0.01 ± 0.021 nM; at rat EP2 receptor (SEAP readout, EP2), 148 ± 5 nM. In addition, the IC50 in assay [3] (human EP4 receptor binding) is 0.74 nM. Moreover, the Ki in assay [3] (human EP4 receptor binding) came out at 0.28 nM.

For `C[C@@H](CCCCCc1ccccc1)[C@H](O)/C=C/[C@H]1CC(F)(F)C(=O)N1CCCc1ccc(C(=O)O)s1` [Example 39C, 5-(3-((R)-3,3-difluoro-5-((3S,4S,E)-3-hydroxy-4-methyl-9-phenylnon-1-en-1-yl)-2-oxopyrrolidin-1-yl)propyl)thiophene-2-carboxylic acid], the EC50 at rat EP2 receptor (SEAP readout, EP2) was determined as 1020 nM.

`C[C@@H](CCCCCc1ccccc1)[C@@H](O)/C=C/[C@H]1CC(F)(F)C(=O)N1CCCc1ccc(C(=O)O)s1` [Example 39D, 5-(3-((R)-3,3-difluoro-5-((3R,4S,E)-3-hydroxy-4-methyl-9-phenylnon-1-en-1-yl)-2-oxopyrrolidin-1-yl)propyl)thiophene-2-carboxylic acid]: the EC50 at rat EP4 receptor [2] (cAMP readout, EP4) came to 0.059 nM; on rat EP2 receptor (SEAP readout, EP2) it was 79000 nM.

With `COC(=O)c1ccc(CCCN2C(=O)C(F)(F)C[C@@H]2/C=C/[C@H](O)[C@@H](C)CCCCCc2ccccc2)s1` [Example 39B, methyl 5-(3-((R)-3,3-difluoro-5-((3R,4S,E)-3-hydroxy-4-methyl-9-phenylnon-1-en-1-yl)-2-oxopyrrolidin-1-yl)propyl)thiophene-2-carboxylate], the EC50 at rat EP4 receptor [2] (cAMP readout, EP4) is greater than 1000 nM.

For the compound `CC#CC[C@H](C)[C@H](O)/C=C/[C@H]1CC(F)(F)C(=O)N1CCCCCCC(=O)O` [Example 1F, 7-((R)-3,3-difluoro-5-((3S,4S,E)-3-hydroxy-4-methyloct-1-en-6-yn-1-yl)-2-oxopyrrolidin-1-yl)heptanoic acid], the figures for the EC50 on rat EP4 receptor [1] (setting [5]) and at rat EP4 receptor [2] (setting [6]) were 0.059 nM and 0.15 nM, respectively. Also, the IC50 in assay [3] (setting [7]) was 1.2 nM. The Ki in assay [3] (setting [7]) amounted to 0.44 nM.

As to `COC(=O)c1ccc(CCCN2C(=O)C(F)(F)C[C@@H]2/C=C/[C@H](O)[C@H](C)CCCc2ccccc2)s1` [Example 28F, methyl 5-(3-((R)-3,3-difluoro-5-((3R,4R,E)-3-hydroxy-4-methyl-7-phenylhept-1-en-1-yl)-2-oxopyrrolidin-1-yl)propyl)thiphene-2-carboxylate], the EC50 on rat EP4 receptor [2] (cAMP readout, EP4) is greater than 1000 nM.

As to `COC(=O)c1ccc(CCCN2C(=O)C(F)(F)C[C@@H]2/C=C/[C@H](O)[C@@H](C)CCCCc2ccccc2)s1` [Example 38B, methyl 5-(3-((R)-3,3-difluoro-5-((3R,4S,E)-3-hydroxy-4-methyl-8-phenyloct-1-en-1-yl)-2-oxopyrrolidin-1-yl)propyl)thiophene-2-carboxylate], the EC50 on rat EP4 receptor [2] (cAMP readout, EP4) was greater than 1000 nM.

As a reminder, the IC50 is the concentration that inhibits the measured activity by half. As usually defined, the Ki is a dissociation constant, usually derived from enzyme kinetics or from competition with a known ligand.
